Measurements reported in patent publication US20120059021A1, “COMPOSITIONS AND METHODS FOR TREATING CANCER AND METHODS FOR PREDICTING A RESPONSE TO SUCH TREATMENTS” (UNIVERSITY OF WASHINGTON, priority 2008, published 2012).

Key:
[1] = system: ppERK1/2; assay: Immunoblot for dual-phosphorylated ERK1/2 in melanoma cells; format: cell-based, human
Source text: By way of non-limiting example, inhibition of ERK signaling can be measured by determining the level of dual-phosphorylated ERK1/2 (ppERK1/2) as described in detail elsewhere herein. In brief, the level of ppERK1/2 can be detected by immunoblot assay.

[2] = system: β-catenin; assay: Immunoblot for β-catenin phosphorylation at Ser33/Ser37/Thr41 in A375 cells; format: cell-based, human
[3] = system: COLO829; assay: qPCR of endogenous Wnt target gene AXIN2, COLO829; format: cell-based, human; conditions: WNT3A CM, 2 μM PLX4720, 24 hours
Source text: RNA purification and qRT-PCR analysis. RNA was purified using the RNeasy kit following the manufacturer's protocol (Qiagen; Maryland, Md.). cDNA was synthesized using RevertAid™ M-MuLV Reverse Transcriptase (Fermentas; Ontario, CAN). Light Cycler FastStart DNA Master SYBR Green1 (Roche; Mannheim, Germany) was used for real-time PCR as previously described (53). Quantitative PCR results presented in the manuscript are averages of a minimum of three biologic replicates.

[4] = system: human A375 melanoma cells grown as xenografts; assay: Xenograft assay, A375:GFP or A375:WNT3A tumors in NSG mice; format: in vivo, mouse; conditions: 50 mg/kg PLX4720 oral gavage once daily
Protocol: Xenograft assays. NSG (NOD/SCID/IL2r-gamma (null)) mice were injected with 5×10^5 A375 cells stably expressing GFP or 5×10^5 A375 cells stably expressing WNT3A-IRES-GFP. Tumors were allowed to establish to approximately 100 mm^3, after which mice where tumor size-matched and allocated to five per treatment group (vehicle or PLX4720). WNT3A-IRES-GFP tumors grew slower and therefore the first day of treatment was day 14 while GFP expressing tumors were first treated on day 9. Treatment was by oral gavage once daily with 5% DMSO in 1% carboxymethyl cellulose or 50 mg/kg PLX4720 in 1% carboxymethyl cellulose (604 mM PLX4720 in DMSO was diluted 1:20 in 1% carboxymethylcellulose). Tumor size was determined by caliper measurements of tumor length and width every 3 to 4 days. Tumor volume was then calculated using the following formula: volume=(width)^2×length/2. Tumors were harvested 2 hours after the last dose and fixed in neutral-buffered formalin overnight at room temperature.

[5] = system: A375 cells; assay: Spheroid assay in three-dimensional collagen matrix; format: cell-based, human
Protocol: Spheroid Assay. A375 cells were used for the spheroid assays. Spheroids were formed and implanted in collagen as previously described (54). Spheroids were treated with indicated conditions 30 minutes after collagen polymerization. Images were obtained on a Nikon TiE inverted widefield high-resolution microscope (Nikon Melville, N.Y.).

[6] = system: Wnt/β-catenin signaling; assay: WNT3A-mediated reporter activity in primary melanocytes; format: cell-based, human; conditions: HEMs
[7] = system: A375 cells; assay: TUNEL assay; format: cell-based, human
Protocol: TUNEL. Glass coverslips were coated with poly-L-lysine in a 24-well dish, rinsed with PBS, and dried. Cells were seeded at a density to achieve 90-100% at harvest. 24 hours after seeding, cells were treated with the indicated conditions and incubated for 24 hours. TUNEL staining was performed according to vendor's protocol (cat#12 156 792 910) (Roche Indianapolis, Ind.). Briefly, media was gently aspirated and cells were fixed in 4% paraformaldehyde for 1 hour at room temperature. Cells were gently rinsed twice with PBS and permeabilized with 0.1% Triton X-100 in 0.1% sodium citrate for 2 minutes on ice. Cells were rinsed twice with PBS, and 40 uL of TUNEL reaction mixture was added directly on top of the slide and incubated for 1 hour at 37° C. in a humidified incubator. Slips were rinsed 3 times and mounted on superfrost plus glass slides (cat#48311-703 VWR West Chester, Pa.) with Prolong Gold anti-fade mounting media containing DAPI (cat# P36931 Invitrogen; Grand Island, N.Y.). Images were obtained on a Nikon TiE inverted widefield high-resolution microscope (Nikon Melville, N.Y.).

[8] = system: ppERK1/2; assay: Capillary-based isoelectric focusing of ppERK1/2 in fine needle aspirates of xenograft tumors; format: in vivo, mouse; conditions: two hours after initial 50 mg/kg PLX4720 vs baseline
Protocol: FIG. 10A depicts a schematic representation of the capillary-based isoelectric focusing method of detecting levels of ppERK1/2 in fine needle aspirates of xenograft tumors from vehicle or PLX4720 treated mice (top panel). Fine needle aspiration procedures (FNA) were performed on xenograft tumors three days prior to treatment for baseline samples and 2 hours after the initial oral gavage treatment of 50 mg/kg PLX4720. FNAs were analyzed for ppERK1/2 and HSP70 for normalization by capillary-based isoelectric focusing on a Nanopro1000 instrument (Cell Biosciences)(bottom panel). […] FNAs of xenograft tumors three days before treatment (baseline) or two hours following the initial treatment of 50 mg/kg PLX4720 were analyzed for ppERK1/2 and normalized to levels of HSP70. Columns and error bars represent the mean and standard deviation, respectively, from three xenograft tumors. […] FIG. 10D is a graph of results from an experiment in which xenograft tumors from FIG. 2A were sectioned, stained with hematoxylin- and eosin, and analyzed for mitotic cells by microscopy under high-power as described elsewhere herein. […]
Xenograft assays. […] Tumor size was determined by caliper measurements of tumor length and width every 3 to 4 days. Tumor volume was then calculated using the following formula: volume=(width)^2×length/2. […]

[9] = system: Wnt/β-catenin signaling; assay: β-catenin activated reporter (BAR) luciferase assay in A375 melanoma cells
Source text: By way of non-limiting example, Wnt/β-catenin signaling can be measured using the BAR reporter described in detail elsewhere herein. Briefly, the BAR (β-catenin activated reporter) is a lentiviral plasmid which provides for expression of luciferase in response to Wnt/β-catenin signaling. Output can be measured with an automated luminescence plate reader.
Detailed information on the β-catenin activated reporter (BAR) has been previously described (23). Briefly, the β-catenin activated reporter (pBAR) is a lentiviral plasmid that contains 12 TCF/LEF binding sites (5′-[sequence]-3′) each separated by distinct 5 base-pair linkers upstream of a minimal promoter and the firefly luciferase open reading frame. The reporter also contains a separate PGK promoter that constitutively drives the expression of a puromycin resistance gene for mammalian cell selection. […] PLX4720 was purchased from Symansis (Australia cat# SY-PLX4720). CHIR99021 was purchased from Axon MedChem (Gronigen, Netherlands catalog #Axon1386). Z-VAD-FMK was purchased from R&D systems (Minneapolis, Minn. cat# FMKSP01).
Low throughput BAR reporter assays. Cells were plated in 96-well plates.

Q: For CCCS(=O)(=O)Nc1ccc(F)c(C(=O)c2c[nH]c3ncc(Cl)cc23)c1F [PLX4720, N-[3-[(5-Chloro-1H-pyrrolo[2,3-b]pyridin-3-yl)carbonyl]-2,4-difluorophenyl]-1-propanesulfonamide], which “dual-phosphorylated ERK1/2 (ppERK1/2)” value ([1]; A375) is on record?
A: dose-dependent inhibition

Q: What about the “time to inhibition of ppERK” value ([1]; A375, WNT3A and PLX4720 time course) of the same compound?
A: ≤ 30 min

Q: What about the ERK1/2 phosphorylation ([1]; six established melanoma lines harboring the BRAF^V600E mutation) of the same compound?
A: inhibition of ERK1/2 phosphorylation

Q: What about the “phosphorylation of β-catenin at GSK3β sites (Ser33/Ser37/Thr41)” value [2] of the same compound?
A: decreased phosphorylation of β-catenin

Q: What about the “SYNERGISTIC WNT ACTIVATION WITH PLX4720?” value [3] of the same compound?
A: YES

Q: And the tumor growth ([4]; A375:GFP tumors)?
A: decreased tumor growth compared to drug vehicle

Q: And the tumor growth ([4]; A375:WNT3A tumors, over four weeks)?
A: near complete suppression

Q: What about the spheroid size ([5]; A375:GFP- and A375:WNT3A-derived spheroids, 2 μM PLX4720, 72 hours) of the same compound?
A: decreased spheroid size

Q: And the “dead cells (EtBr staining)” value ([5]; spheroids expressing WNT3A, 2 μM PLX4720, 24 hours)?
A: detection of dead cells

Q: And the “number of invasive cells” value ([5]; spheroids expressing WNT3A, 2 μM PLX4720, 72 hours)?
A: dramatic decrease in the number of invasive cells

Q: What about the Wnt/β-catenin signaling [6] of the same compound?
A: no detectable effect

Q: What about the TUNEL staining ([7]; A375, agents individually) of the same compound?
A: minimal TUNEL-positivity

Q: What about the TUNEL staining ([7]; WNT3A and 2 μM PLX4720, 24 hours) of the same compound?
A: presence of apoptotic cell death

Q: What about the “ppERK2 in xenograft tumors (normalized to HSP70)” value [8] of the same compound?
A: significantly less ppERK2

Q: What about the “activation of BAR” value ([9]; A375, PLX4720 on its own) of the same compound?
A: does not lead to any measurable activation of BAR on its own

Q: What about the “Wnt/β-catenin signaling (BAR activity)” value ([9]; A375, in the presence of WNT3A) of the same compound?
A: enhanced Wnt/β-catenin signaling in a dose-dependent manner

Q: What about the “Combination indices (BAR activity)” value ([9]; WNT3A and PLX4720, fixed ratio doses, particularly at higher levels of BAR activity) of the same compound?
A: less than 1
